# Assay results from patent US20220339204A1, “METHOD AND COMPOSITION FOR AM[…] SEEKING BEHAVIOR” (priority 2018, published 2022).
# Entries after “also recorded” stand apart in the source; their conditions may differ.
# Tested on: Sprague-Dawley rats (preference for drug-paired white chamber)
# Assay: Conditioned Place Preference (CPP) conditioning and addiction with amphetamine, exploration on day 4 of withdrawal
# Format: in vivo, male Sprague-Dawley rats
# Description: A three (3) chambered CPP apparatus, measuring 75 cm×30 cm×25 cm, was employed. The single black, white and grey chambers could each be isolated from the other by a sliding door on either side of the central grey chamber. […] The floor of the white chamber was covered with shiny transparent Perspex; while the floor of the black chamber was covered with wire mesh and sawdust, creating two contrasting chambers with distinct visual and tactile cues, representing a biased paradigm. The apparatus was thoroughly cleaned with a dilute solution of disinfectant upon completion of exploration by each rat.
# Twenty four (24), three (3) month old male Sprague-Dawley rats, weighing approximately 250-350 g each, were obtained from the University of the West Indies Faculty of Medical Sciences Animal House following ethical approval of the protocol by the FMS/UHWI/UWI Ethics Committee, on the Mona Campus of the University of the West Indies. Animals were housed in pairs, in a normal twelve (12) hour light: dark cycle and fed food and water ad libitum.
# Phase 1: Pre-conditioning, selection and first group assignments: Animals were selected for inclusion in the experiment via pre-conditioning. They were allowed an initial twenty (20) minute exploration of the CPP apparatus, and scores of chamber entries and time counted from a video recording. Animals displaying ≥80% preference for the dark CPP chamber during pre-conditioning were selected and randomly assigned to one of two treatment groups, AMP or SAL, each containing twelve animals.
# Phase 2: Conditioning: During the conditioning phase, rats assigned to the amphetamine treatment group (Group AMP) received 1 ml of amphetamine hydrochloride (sigma) dissolved in 0.9% saline, providing 5 mg/kg intraperitoneally (i.p.). Rats in Group SAL were given 1 ml of physiological saline intraperitoneally.
# Conditioning consisted of 8 days of daily, group-assigned intraperitoneal injection and then immediate, individual confinement to the white, ‘aversive’ chamber for thirty (30) minutes. […]
# Phase 3: Amphetamine addiction and drug withdrawal: On day 9, the addiction phase ensued, with a six (6) day period of exposure to a daily increasing amphetamine dose for the drug treated (Group AMP) animals. […] During this period, the number of entries made into each chamber and the time spent in each chamber were recorded for all rats via scores from video recordings of exploration.
# All the resulting data were analyzed, using the SPSS 19 software. The mean percent time and entries into the white CPP chamber by each animal were scored from video recordings. […]
# [1] = Groups AMP-S and AMP-N, amphetamine 5-7 mg/kg i.p., t-test, p<0.001, hydrochloride
structure (smiles),measurement,setting,value
"CC(N)Cc1ccccc1.Cl (stereo not shown) [Amphetamine, amphetamine hydrochloride]",percent time in the drug-paired white chamber during withdrawal versus saline treated groups,"AMP-S and AMP-N combined n=12 versus SAL-S and SAL-N, p<0.01",significantly increased
same,percent entries into the drug-paired white chamber during withdrawal versus saline treated groups,"AMP-S and AMP-N versus SAL-S and SAL-N, p<0.01",significantly higher
same,percent entries into the drug-paired white chamber during withdrawal versus pre-conditioning,[1],significantly more entries; also recorded: significantly increased
same,percent time in the drug-paired white chamber during withdrawal versus pre-conditioning,[1],significantly more time; also recorded: significantly increased
